O=C(O)[C@@H]1CSCN1
solubility (mole fraction)
Conditions | in 1,4-dioxane | in acetone | in acetonitrile | in dichloromethane | in ethanol | in ethyl acetate | in isopropanol | in methanol | in water
283.15 K | – | 0.00018 | 2.2e-05 | 1.5e-05 | 9e-05 | 2.3e-05 | 3.7e-05 | 5.5e-05 | 0.00296
288.15 K | 0.00035 | – | – | 5.1e-05 | – | – | – | – | –
293.15 K | 0.000384 | 0.000298 | 3e-05 | 0.000134 | 0.000125 | 7.2e-05 | 6.8e-05 | 7.4e-05 | 0.00383
298.15 K | – | – | – | 0.000208 | – | – | – | – | –
303.15 K | 0.000477 | 0.000537 | 4.8e-05 | 0.000292 | 0.00018 | 0.000158 | 9.8e-05 | 0.000112 | 0.00502
313.15 K | 0.000589 | 0.00135 | 6.8e-05 | – | 0.000254 | 0.000297 | 0.000127 | 0.000209 | 0.0062
323.15 K | 0.000708 | 0.00343 | 9.1e-05 | – | 0.000348 | 0.000471 | 0.00019 | 0.000315 | 0.00773
